The nature of the test: Solvolytic stability of compound was measured relative to p-hydroxyphenethyl bromide. It is filed as functional, Rattus norvegicus.

The molecule `C[C@]12CC[C@@H]3c4ccc(O)cc4CC[C@H]3[C@@H]1C[C@@H](Br)[C@@H]2O` showed a 1/krel of 1276.

(Values after ChEMBL document CHEMBL1121966, “(2R*,3S*)-1-[125I]Iodo-2,3-bis(4-hydroxyphenyl)pentane ([125I]iodonorhexestrol) and (2R*,3S*)-1-[77Br]Bromo-2,3-bis(4-hydroxyphenyl)pentane ([77Br]bromonorhexestrol), two gamma-emitting estrogens that show receptor-mediated uptake by target tissues in vivo” (1982).)
